The results in this text go back to US20250051347A1, “BIFUNCTIONAL CHIMERIC HETEROCYCLIC COMPOUND AND USE THEREOF AS ANDROGEN RECEPTOR DEGRADER” (Hinova Pharmaceuticals, Inc., priority 2021, published 2025).

Like-named read-outs stand apart in the source and are kept apart here.

For assay [1], the target named is T1, androgen receptor (AR) splicing variant AR-v7 (Homo sapiens, UniProt P10275).
T1 construct: The degradation activity of compounds on AR-v7 in 22RV1 cells; host or cells: 22RV1 cells
T1 sequence (P10275 1-644 isoform P10275-3): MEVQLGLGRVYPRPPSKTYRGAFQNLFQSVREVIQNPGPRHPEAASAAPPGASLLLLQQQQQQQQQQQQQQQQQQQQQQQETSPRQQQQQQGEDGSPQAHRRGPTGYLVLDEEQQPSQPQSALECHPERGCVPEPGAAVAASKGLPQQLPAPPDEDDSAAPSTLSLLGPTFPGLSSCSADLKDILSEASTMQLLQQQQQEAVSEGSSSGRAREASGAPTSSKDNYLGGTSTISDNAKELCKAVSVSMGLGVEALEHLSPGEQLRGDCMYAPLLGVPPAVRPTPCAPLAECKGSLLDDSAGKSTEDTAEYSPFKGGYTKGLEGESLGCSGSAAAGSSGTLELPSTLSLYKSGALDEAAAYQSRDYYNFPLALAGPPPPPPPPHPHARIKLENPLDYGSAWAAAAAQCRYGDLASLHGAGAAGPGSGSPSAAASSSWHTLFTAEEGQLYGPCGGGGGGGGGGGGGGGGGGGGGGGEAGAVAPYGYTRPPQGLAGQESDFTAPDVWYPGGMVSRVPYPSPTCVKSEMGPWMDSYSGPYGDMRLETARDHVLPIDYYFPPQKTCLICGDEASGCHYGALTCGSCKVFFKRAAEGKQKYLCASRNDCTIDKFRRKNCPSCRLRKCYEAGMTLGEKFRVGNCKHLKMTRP
The experiment in a line: Degradation activity on androgen receptor splicing variant AR-v7 in 22RV1 cells (ELISA). The conditions noted are these: AR-v7 degradation in 22RV1 cells, 48 h, class symbols. Format: cell-based. Background: ELISA stands for enzyme-linked immunosorbent assay.

Setting [2] is: Homo sapiens, 22Rv1, 144 h, read-out: 22RV1 IC50 (nM), 22RV1 cells, 6 days culture, CCK-8, OD 450 nm.
The mark [3] stands for this setting: Homo sapiens, 22Rv1, 144 h, read-out: 22RV1 IC50 (nM).
The mark [4] stands for this setting: read-out: 22RV1 IC50, 22RV1 cells, 6 days culture, CCK-8, OD 450 nm.

As for `Cc1nc(-c2ncc(Oc3ccc(C4(c5ccc(O[C@H]6C[C@H](Nc7ccc8c(c7)C(=O)N(C7CCC(=O)NC7=O)C8=O)C6)cc5)CCOCC4)cc3)cn2)no1` (some centres unmarked) [Example 382, 2-(2,6-dioxopiperidin-3-yl)-5-(((1r,3r)-3-(4-(4-(4-((2-(5-methyl-1,2,4-oxadiazol-3-yl)pyrimidin-5-yl)oxy)phenyl)tetrohydro-2H-pyran-4-yl)phenoxy)cyclobutyl)amino)isoindolin-1,3-dione], the DC50 – broadly, the midpoint of the concentration-degradation curve – in assay [1] was less than 10 nM. The IC50 – broadly, the concentration that gives 50% inhibition – with 22RV1 cells (setting [2]) was less than 1 nM.
Consider `CC(C)(c1ccc(OCCCNc2ccc3c(c2)C(=O)N(C2CCC(=O)NC2=O)C3=O)cc1)c1ccc(OCc2ccnc(N3CCC3)n2)cc1` (centres unmarked) [Example 383], for which the DC50 in assay [1] lay in the range of 11 to 100 nM. The half-inhibitory concentration (IC50) with 22RV1 cells (setting [3]) worked out at 34 nM.
In the case of `CC(C)(c1ccc(OCCCNc2ccc3c(c2)C(=O)N(C2CCC(=O)NC2=O)C3=O)cc1)c1ccc(OCc2ccnc(-n3cncn3)n2)cc1` (centres unmarked) [Example 389, 5-((3-(4-(2-(4-((2-(1H-1,2,4-triazol-1-yl)pyrimidin-4-yl)methoxy)phenyl)propan-2-yl)phenoxy)propyl)amino)-2-(2,6-dioxopiperidin-3-yl)isoindol-1,3-dione], the DC50 in assay [1] is 11 to 100 nM. Besides, the IC50 with 22RV1 cells (setting [2]) was 54 nM.
The matching figures for `CNc1nccc(COc2ccc(C(C)(C)c3ccc(OCCCNc4ccc5c(c4)C(=O)N(C4CCC(=O)NC4=O)C5=O)cc3)cc2)n1` (centres unmarked) [Example 390]: 11 to 100 nM and 26 nM.
As to `CC(C)(c1ccc(OCCCNc2ccc3c(c2)C(=O)N(C2CCC(=O)NC2=O)C3=O)cc1)c1ccc(OCc2ccnc(-n3ccnc3)n2)cc1` (centres unmarked) [Example 391, 5-((3-(4-(2-(4-((2-(1H-imidazol-1-yl)pyrimidin-4-yl)methoxy)phenyl)propan-2-yl)phenoxy)propyl)amino)-2-(2,6-dioxopiperidin-3-yl)isoindol-1,3-dione], the DC50 in assay [1] is 11 to 100 nM. In addition, in the assay with 22RV1 cells (setting [2]), the IC50 turned out to be 56 nM.
The matching figures for `CNc1nccc(COc2ccc(C(C)(C)c3ccc(OC4CC(Nc5ccc6c(c5)C(=O)N(C5CCC(=O)NC5=O)C6=O)C4)cc3)cc2)n1` (centres unmarked) [Example 392]: 11 to 100 nM and 21 nM.
`CN1CCN(c2nccc(COc3ccc(C(C)(C)c4ccc(OC5CC(Nc6ccc7c(c6)C(=O)N(C6CCC(=O)NC6=O)C7=O)C5)cc4)cc3)n2)CC1` (centres unmarked) [Example 393] displayed a 50% degradation concentration (DC50) in assay [1] of 11 to 100 nM. In addition, the IC50 in the assay on 22RV1 cells (setting [2]) amounted to 10 nM.
The matching figures for `CNc1nccc(COc2ccc(C(C)(C)c3ccc(O[C@H]4C[C@H](Nc5ccc6c(c5)C(=O)N(C5CCC(=O)NC5=O)C6=O)C4)cc3)cc2)n1` (some centres unmarked) [Example 395]: less than 10 nM and 10 nM.
In assay [1], `CC(C)(c1ccc(OCc2ccnc(N3CCOCC3)n2)cc1)c1ccc(OC2CC(Nc3ccc4c(c3)C(=O)N(C3CCC(=O)NC3=O)C4=O)C2)cc1` (centres unmarked) [Example 396, 2-(2,6-dioxopyridin-3-yl)-5-(1s,3s)-3-(4-(2-(4-(2-morpholinylpyrimidin-4-yl)methoxy)phenyl)propan-2-yl)phenoxy)cyclobutyl)amino)isoindol-1,3-dione] yielded a DC50 of less than 10 nM. Besides, the IC50 in the assay on 22RV1 cells (setting [4]) stood at 23 nM.
As to `CC(C)(c1ccc(OCc2ccnc(N3CCC[C@@H](O)C3)n2)cc1)c1ccc(O[C@H]2C[C@@H](Nc3ccc4c(c3)C(=O)N(C3CCC(=O)NC3=O)C4=O)C2)cc1` (some centres unmarked) [Example 397], the DC50 in assay [1] was less than 10 nM. Moreover, the IC50 with 22RV1 cells (setting [2]) was 13 nM.
`CC(C)(c1ccc(OCc2ccnc(N3CC[C@H](O)C3)n2)cc1)c1ccc(OC2CC(Nc3ccc4c(c3)C(=O)N(C3CCC(=O)NC3=O)C4=O)C2)cc1` (some centres unmarked) [Example 398] returned a DC50 in assay [1] of less than 10 nM. The IC50 in the assay on 22RV1 cells (setting [4]) amounted to 9 nM.
`CC(C)(c1ccc(OCc2ccnc(N3CCC[C@H](O)C3)n2)cc1)c1ccc(O[C@H]2C[C@@H](Nc3ccc4c(c3)C(=O)N(C3CCC(=O)NC3=O)C4=O)C2)cc1` (some centres unmarked) [Example 399]: the DC50 in assay [1] is less than 10 nM. In the assay with 22RV1 cells (setting [2]), the half-maximal inhibitory concentration (IC50) was determined as 16 nM.
The matching figures for `CN(C)C1CN(c2nccc(COc3ccc(C(C)(C)c4ccc(O[C@H]5C[C@@H](Nc6ccc7c(c6)C(=O)N(C6CCC(=O)NC6=O)C7=O)C5)cc4)cc3)n2)C1` (some centres unmarked) [Example 400]: less than 10 nM and 10 nM.
In the case of `CC(C)(c1ccc(OCc2ccnc(-n3ccnc3)n2)cc1)c1ccc(OC2CC(Nc3ccc4c(c3)C(=O)N(C3CCC(=O)NC3=O)C4=O)C2)cc1` (centres unmarked) [Example 405, 5-((1s,3s)-3-(4-(2-(2-(1H-imidazol-1-yl)pyrimidin-4-yl)methoxy)phenyl)propan-2-yl)phenoxy)cyclobutyl)amino)-2-(2,6-dioxopiperidin-3-yl)isoindol-1,3-dione], in assay [1], the DC50 is less than 10 nM. The IC50 in the assay with 22RV1 cells (setting [4]) amounted to 19 nM.
`CC(C)(c1ccc(OCc2ccnc(N3CC(N4CCC4)C3)n2)cc1)c1ccc(O[C@H]2C[C@@H](Nc3ccc4c(c3)C(=O)N(C3CCC(=O)NC3=O)C4=O)C2)cc1` (some centres unmarked) [Example 410] showed a DC50 in assay [1] of less than 10 nM. Besides, the IC50 in the assay with 22RV1 cells (setting [2]) was 6 nM.
For `CC(C)(c1ccc(OCc2cccc(N3CC4(COC4)C3)n2)cc1)c1ccc(O[C@H]2C[C@H](Nc3ccc4c(c3)C(=O)N(C3CCC(=O)NC3=O)C4=O)C2)cc1` (some centres unmarked) [Example 413], the DC50 in assay [1] was less than 10 nM. For the same molecule, in the assay on 22RV1 cells (setting [2]), the IC50 stood at 11 nM.
Molecule `CC(C)(c1ccc(OCc2ccnc(N3CC(N4CCC4)C3)n2)cc1)c1ccc(O[C@H]2C[C@H](Nc3ccc4c(c3)C(=O)N(C3CCC(=O)NC3=O)C4=O)C2)cc1` (some centres unmarked) [Example 414] displayed a DC50 in assay [1] of less than 10 nM. Besides, in the assay on 22RV1 cells (setting [2]), the half-inhibitory concentration (IC50) amounted to 6 nM.
The matching figures for `Cn1cc(-c2cccc(COc3ccc(C(C)(C)c4ccc(O[C@H]5C[C@H](Nc6ccc7c(c6)C(=O)N(C6CCC(=O)NC6=O)C7=O)C5)cc4)cc3)n2)cn1` (some centres unmarked) [Example 416]: less than 10 nM and 22 nM.
For `CC(C)(c1ccc(OCc2cccc(-n3nccn3)n2)cc1)c1ccc(O[C@H]2C[C@H](Nc3ccc4c(c3)C(=O)N(C3CCC(=O)NC3=O)C4=O)C2)cc1` (some centres unmarked) [Example 419], in assay [1], the DC50 was less than 10 nM. In addition, the IC50 in the assay on 22RV1 cells (setting [2]) was 8 nM.
The matching figures for `CC(C)(c1ccc(OCc2ccnc(N3CC(N4CC(F)C4)C3)n2)cc1)c1ccc(O[C@H]2C[C@H](Nc3ccc4c(c3)C(=O)N(C3CCC(=O)NC3=O)C4=O)C2)cc1` (some centres unmarked) [Example 420]: less than 10 nM and 5 nM.
The molecule `Cc1nc(-c2cccc(Oc3ccc(C(C)(C)c4ccc(O[C@H]5C[C@H](Nc6ccc7c(c6)C(=O)N(C6CCC(=O)NC6=O)C7=O)C5)cc4)cc3)n2)no1` (some centres unmarked) [Example 421] registered a DC50 in assay [1] of less than 10 nM. In addition, the IC50 in the assay on 22RV1 cells (setting [3]) was determined as 3 nM.
Consider `CN1CCN(c2ccc(Oc3ccc(C(C)(C)c4ccc(O[C@H]5C[C@H](Nc6ccc7c(c6)C(=O)N(C6CCC(=O)NC6=O)C7=O)C5)cc4)cc3)nn2)CC1` (some centres unmarked) [Example 425], for which the 50% degradation concentration (DC50) in assay [1] is less than 10 nM. The IC50 in the assay on 22RV1 cells (setting [2]) was 16 nM.
The matching figures for `CCC(=O)c1ncc(Oc2ccc(C(C)(C)c3ccc(O[C@H]4C[C@H](Nc5ccc6c(c5)C(=O)N(C5CCC(=O)NC5=O)C6=O)C4)cc3)cc2)cn1` (some centres unmarked) [Example 427]: less than 10 nM and 6 nM.
The matching figures for `CCC(O)c1ncc(Oc2ccc(C(C)(C)c3ccc(O[C@H]4C[C@H](Nc5ccc6c(c5)C(=O)N(C5CCC(=O)NC5=O)C6=O)C4)cc3)cc2)cn1` (some centres unmarked) [Example 428]: less than 10 nM and 6 nM.
In assay [1], `Cc1nnc(Oc2ccc(C(C)(C)c3ccc(O[C@H]4C[C@H](Nc5ccc6c(c5)C(=O)N(C5CCC(=O)NC5=O)C6=O)C4)cc3)cc2)o1` (some centres unmarked) [Example 429, 2-(2,6-dioxopiperidin-3-yl)-5-((1r,3r)-3-(4-(2-(4-((5-methyl-1,3,4-oxadiazol-2-yl)oxy)phenyl)propan-2-yl)phenoxy)cyclobutyl)aminoisoindol-1,3-dione] yielded a DC50 of less than 10 nM. For the same molecule, in the assay with 22RV1 cells (setting [2]), the IC50 came to 9 nM.
The matching figures for `CCC(CC)(c1ccc(Oc2ccc(C(C)O)nn2)cc1)c1ccc(O[C@H]2C[C@@H](Nc3ccc4c(c3)C(=O)N(C3CCC(=O)NC3=O)C4=O)C2)cc1` (some centres unmarked) [Example 430]: less than 10 nM and 9 nM.
In the case of `CCC(CC)(c1ccc(Oc2ccc(C(C)=O)nn2)cc1)c1ccc(OC2CC(Nc3ccc4c(c3)C(=O)N(C3CCC(=O)NC3=O)C4=O)C2)cc1` (centres unmarked) [Example 431, 5-((1s,3s)-3-(4-(3-(4-((6-acetylpyridazine-3-yl)oxy)phenyl)pentan-3-yl)phenoxy)cyclobutyl)amino)-2-(2,6-dioxopyridin-3-yl)isoindol-1,3-dione], in assay [1], the 50% degradation concentration (DC50) is less than 10 nM. Besides, in the assay with 22RV1 cells (setting [4]), the IC50 came to 4 nM.
For `CNC(=O)c1ncc(Oc2ccc(C(C)(C)c3ccc(O[C@H]4C[C@H](Nc5ccc6c(c5)C(=O)N(C5CCC(=O)NC5=O)C6=O)C4)cc3)cc2)cn1` (some centres unmarked) [Example 432], in assay [1], the half-maximal degradation concentration (DC50) was less than 10 nM. Moreover, in the assay with 22RV1 cells (setting [2]), the IC50 came out at 7 nM.
